Counter-ions that a name gives are not always drawn.
Target: T1, rat mGluR5 (Rattus norvegicus, UniProt P31424)
T1 construct: expressed in transfected cells
Assay: mGluR5 assay on HEK-expressing rat mGluR5 (fluorescent cell based Ca2+ mobilization assay)
Details: HEK-293 cells stably expressing rat mGluR5; no co-addition of glutamate; mean of at least three independent experiments in duplicate; read-out: Ca++ Flux (mean EC50)
Procedure: mGluR5 Assay on HEK-Expressing Rat mGluR5
Positive functional expression of HEK-293 cells stably expressing rat mGluR5 receptor was determined by measuring intracellular Ca^2+ changes using a Fluorometric Imaging Plate Reader (FLIPR, Molecular Devices, Sunnyvale, Calif.) in response to glutamate or selective known mGluR5 agonists and antagonists. Rat mGluR5 RT-PCR products in HEK-293 cells were sequenced and found 100% identical to rat mGluR5 Genbank reference sequence (NM_017012). HEK-293 cells expressing rmGluR5 were maintained in media containing DMEM, dialyzed Fetal Bovine Serum (10%), Glutamax™ (2 mM), Penicillin (100 units/ml), Streptomycin (100 μg/ml), Geneticin (100 μg/ml) and Hygromycin-B (40 μg/ml) at 37° C./5% CO2.
After one day of incubation, cells were washed with assay buffer containing: 142 mM NaCl, 6 mM KCl, 1 mM […], 1 mM CaCl2, 20 mM HEPES, 1 g/L glucose, 0.125 mM sulfinpyrazone, pH 7.4. After 60 min of loading with 4 uM Fluo-4 (TefLabs, Austin, Tex.), the cells were washed three times with 50 μl of PBS Buffer and resuspended in 45 μl of assay Buffer. The plates were then transferred to a Fluorometric Imaging Plate Reader (FLIPR, Molecular Devices, Sunnyvale, Calif.) for the assessment of intracellular calcium flux. After monitoring the baseline fluorescence for 10 seconds, increasing concentrations of representative compound (from 0.01 to 60 μM) of the present invention diluted in Assay Buffer (15 μl of 4× dilutions) was added to the cell. The final DMSO concentration in the assay was 0.3%. In each experiment, fluorescence was then monitored as a function of time for 3 minutes and the data analyzed using Microsoft Excel and GraphPad Prism. Each data point was also measured two times.
Under these experimental conditions, this HEK-rat mGluR5 cell line is able to directly detect positive allosteric modulators without the need of co-addition of glutamate or mGluR5 agonist.
The concentration-response curves of representative compounds of the present invention were generated using the Prism GraphPad software (Graph Pad Inc, San Diego, USA). The curves were fitted to a four-parameter logistic equation:
(Y=Bottom+(Top−Bottom)/(1+10̂((Log EC50−X)*Hill Slope)
allowing determination of EC50 values.
The Table 1 below represents the mean EC50 obtained from at least three independent experiments of selected molecules performed in duplicate.

T1 sequence (P31424 21-1171 isoform P31424-2 limits assumed): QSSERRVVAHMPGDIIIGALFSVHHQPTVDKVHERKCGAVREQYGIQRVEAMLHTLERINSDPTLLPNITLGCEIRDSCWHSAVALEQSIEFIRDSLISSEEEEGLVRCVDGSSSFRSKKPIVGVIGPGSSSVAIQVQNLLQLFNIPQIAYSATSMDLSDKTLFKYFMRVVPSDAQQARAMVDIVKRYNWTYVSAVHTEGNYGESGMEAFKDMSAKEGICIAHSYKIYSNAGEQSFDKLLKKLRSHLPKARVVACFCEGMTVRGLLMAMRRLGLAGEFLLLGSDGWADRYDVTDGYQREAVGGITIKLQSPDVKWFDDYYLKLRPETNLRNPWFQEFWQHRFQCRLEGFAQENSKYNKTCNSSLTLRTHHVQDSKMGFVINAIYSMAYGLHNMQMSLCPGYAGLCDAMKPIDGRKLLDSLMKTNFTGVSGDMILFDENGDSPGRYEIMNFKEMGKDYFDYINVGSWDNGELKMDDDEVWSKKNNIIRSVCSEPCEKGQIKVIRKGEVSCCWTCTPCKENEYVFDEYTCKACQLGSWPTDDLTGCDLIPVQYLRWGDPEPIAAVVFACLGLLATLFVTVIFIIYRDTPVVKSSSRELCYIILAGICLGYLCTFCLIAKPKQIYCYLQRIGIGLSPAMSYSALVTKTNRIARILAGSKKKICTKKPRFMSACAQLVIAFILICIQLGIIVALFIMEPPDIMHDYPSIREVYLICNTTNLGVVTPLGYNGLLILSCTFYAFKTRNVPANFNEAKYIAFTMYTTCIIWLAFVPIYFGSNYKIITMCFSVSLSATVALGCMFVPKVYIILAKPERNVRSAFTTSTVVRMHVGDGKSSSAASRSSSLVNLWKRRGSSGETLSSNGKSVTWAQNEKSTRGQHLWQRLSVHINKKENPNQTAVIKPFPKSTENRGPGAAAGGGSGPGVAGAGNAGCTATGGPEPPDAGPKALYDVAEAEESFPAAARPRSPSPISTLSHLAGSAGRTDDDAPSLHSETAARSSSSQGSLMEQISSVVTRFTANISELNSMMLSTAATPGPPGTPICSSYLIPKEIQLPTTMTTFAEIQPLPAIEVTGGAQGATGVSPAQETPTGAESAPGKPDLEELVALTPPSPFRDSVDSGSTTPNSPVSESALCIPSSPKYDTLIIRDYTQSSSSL

Structure (SMILES): Cc1nocc1C(=O)N1CCC[C@H](c2nc(-c3ccc(F)cc3)no2)C1 [Example 4, (S)-{3-[3-(4-Fluoro-phenyl)-[1,2,4]oxadiazol-5-yl]-piperidin-1-yl}-(3-methyl-isoxazol-4-yl)-methanone]
- EC50: 1 to 10 µM

Structure (SMILES): O=C(c1cccc(COc2ccccc2)c1)N1CCC[C@H](c2nc(-c3ccc(F)cc3)no2)C1 [Example 6, {(S)-3-[3-(4-Fluoro-phenyl)-[1,2,4]oxadiazol-5-yl]-piperidin-1-yl}-(3-phenoxymethyl-phenyl)-methanone]
- EC50: > 10 µM

Structure (SMILES): O=C(C1CCc2cc(F)ccc21)N1CCC[C@H](c2nc(-c3ccc(F)cc3)no2)C1 (stereo partly drawn) [Example 8, (5-Fluoro-indan-1-yl)-{(S)-3-[3-(4-fluoro-phenyl)-[1,2,4]oxadiazol-5-yl]-piperidin-1-yl}-methanone]
- EC50: > 10 µM

Structure (SMILES): Cc1nnsc1C(=O)N1CCC[C@H](c2nc(-c3ccc(F)cc3)no2)C1 [Example 13, {(S)-3-[3-(4-Fluoro-phenyl)-[1,2,4]oxadiazol-5-yl]-piperidin-1-yl}-(4-methyl-[1,2,3]thiadiazol-5-yl)-methanone]
- EC50: 1 to 10 µM

Structure (SMILES): O=C(c1cccnc1F)N1CCC[C@H](c2nc(-c3ccc(F)cc3)no2)C1 [Example 14, {(S)-3-[3-(4-Fluoro-phenyl)-[1,2,4]oxadiazol-5-yl]-piperidin-1-yl}-(2-fluoro-pyridin-3-yl)-methanone]
- EC50: 1 to 10 µM

Structure (SMILES): O=C(c1ccccn1)N1CCC[C@H](c2nc(-c3ccc(F)cc3)no2)C1 [Example 15, {(S)-3-[3-(4-Fluoro-phenyl)-[1,2,4]oxadiazol-5-yl]-piperidin-1-yl}-pyridin-2-yl-methanone hydrochloride]
- EC50: 1 to 10 µM

Structure (SMILES): Cc1nc(C)c(C(=O)N2CCC[C@H](c3nc(-c4ccc(F)cc4)no3)C2)s1 [Example 18, (2,4-Dimethyl-thiazol-5-yl)-{(S)-3-[3-(4-fluoro-phenyl)-[1,2,4]oxadiazol-5-yl]-piperidin-1-yl}-methanone]
- EC50: 1 to 10 µM

Structure (SMILES): Cc1ccccc1C(=O)N1CCC[C@H](c2nc(-c3ccc(F)cc3)no2)C1 [Example 19, {(S)-3-[3-(4-Fluoro-phenyl)-[1,2,4]oxadiazol-5-yl]-piperidin-1-yl}-o-tolyl-methanone]
- EC50: 1 to 10 µM

Structure (SMILES): CCc1ccccc1C(=O)N1CCC[C@H](c2nc(-c3ccc(F)cc3)no2)C1 [Example 20, (2-Ethyl-phenyl)-{3-[3-(4-fluoro-phenyl)-[1,2,4]oxadiazol-5-yl]-piperidin-1-yl}-methanone]
- EC50: 1 to 10 µM

Structure (SMILES): Cc1c(C(=O)N2CCC[C@H](c3nc(-c4ccc(F)cc4)no3)C2)cnn1C [Example 21, (1,5-Dimethyl-1H-pyrazol-4-yl)-{(S)-3-[3-(4-fluoro-phenyl)-[1,2,4]oxadiazol-5-yl]-piperidin-1-yl}-methanone]
- EC50: 1 to 10 µM

Structure (SMILES): O=C(c1ccoc1)N1CCC[C@H](c2nc(-c3ccc(F)cc3)no2)C1 [Example 22, {(S)-3-[3-(4-Fluoro-phenyl)-[1,2,4]oxadiazol-5-yl]-piperidin-1-yl}-furan-3-yl-methanone]
- EC50: 1 to 10 µM

Structure (SMILES): Cc1occc1C(=O)N1CCC[C@H](c2nc(-c3ccc(F)cc3)no2)C1 [Example 24, {(S)-3-[3-(4-Fluoro-phenyl)-[1,2,4]oxadiazol-5-yl]-piperidin-1-yl}-(2-methyl-furan-3-yl)-methanone]
- EC50: 1 to 10 µM

Structure (SMILES): O=C(c1ccsc1Br)N1CCC[C@H](c2nc(-c3ccc(F)cc3)no2)C1 [Example 28, (S)-(2-Bromo-thiophen-3-yl)-{3-[3-(4-fluoro-phenyl)-[1,2,4]oxadiazol-5-yl]-piperidin-1-yl}-methanone]
- EC50: 1 to 10 µM

Structure (SMILES): Cc1ccoc1C(=O)N1CCC[C@H](c2nc(-c3ccc(F)cc3)no2)C1 [Example 30, (S)-{3-[3-(4-Fluoro-phenyl)-[1,2,4]oxadiazol-5-yl]-piperidin-1-yl}-(3-methyl-furan-2-yl)-methanone]
- EC50: 1 to 10 µM

Structure (SMILES): COc1ccsc1C(=O)N1CCC[C@H](c2nc(-c3ccc(F)cc3)no2)C1 [Example 31, {(S)-3-[3-(4-Fluoro-phenyl)-[1,2,4]oxadiazol-5-yl]-piperidin-1-yl}-(3-methoxy-thiophen-2-yl)-methanone]
- EC50: > 10 µM

Structure (SMILES): Cc1cc(F)ccc1C(=O)N1CCC[C@H](c2nc(-c3ccc(F)cc3)no2)C1 [Example 32, (4-Fluoro-2-methyl-phenyl)-{(S)-3-[3-(4-fluoro-phenyl)-[1,2,4]oxadiazol-5-yl]-piperidin-1-yl}-methanone]
- EC50: < 1 µM

Structure (SMILES): Cc1cccc(-c2noc([C@H]3CCCN(C(=O)c4ccc(F)cc4)C3)n2)n1 [Example 33, (4-Fluoro-phenyl)-{(S)-3-[3-(6-methyl-pyridin-2-yl)-[1,2,4]oxadiazol-5-yl]-piperidin-1-yl}-methanone]
- EC50: 1 to 10 µM

Structure (SMILES): Cc1ccc(-c2noc([C@H]3CCCN(C(=O)c4ccc(F)cc4)C3)n2)o1 [Example 34, (4-Fluoro-phenyl)-{(S)-3-[3-(5-methyl-furan-2-yl)-[1,2,4]oxadiazol-5-yl]-piperidin-1-yl}-methanone]
- EC50: 1 to 10 µM

Structure (SMILES): O=C(c1ccc(F)cc1)N1CCC[C@H](c2nc(-c3ccco3)no2)C1 [Example 35, (4-Fluoro-phenyl)-[(S)-3-(3-furan-2-yl-[1,2,4]oxadiazol-5-yl)-piperidin-1-yl]-methanone]
- EC50: 1 to 10 µM

Structure (SMILES): Cc1sccc1C(=O)N1CCC[C@H](c2nc(-c3ccc(F)cc3)no2)C1 [Example 36, {(S)-3-[3-(4-Fluoro-phenyl)-[1,2,4]oxadiazol-5-yl]-piperidin-1-yl}-(2-methyl-thiophen-3-yl)-methanone]
- EC50: 1 to 10 µM

Structure (SMILES): O=C(c1ccc(F)cc1)N1CCC[C@H](c2nc(-c3cccs3)no2)C1 [Example 37, (4-Fluoro-phenyl)-[(S)-3-(3-thiophen-2-yl-[1,2,4]oxadiazol-5-yl)-piperidin-1-yl]-methanone]
- EC50: < 1 µM

Structure (SMILES): O=C(c1ccc(F)cc1)N1CCC[C@H](c2nc(-c3ccsc3)no2)C1 [Example 38, (4-Fluoro-phenyl)-[(S)-3-(3-thiophen-3-yl-[1,2,4]oxadiazol-5-yl)-piperidin-1-yl]-methanone]
- EC50: < 1 µM

Structure (SMILES): Cn1cccc1-c1noc([C@H]2CCCN(C(=O)c3ccc(F)cc3)C2)n1 [Example 39, (4-Fluoro-phenyl)-{(S)-3-[3-(1-methyl-1H-pyrrol-2-yl)-[1,2,4]oxadiazol-5-yl]-piperidin-1-yl}-methanone]
- EC50: 1 to 10 µM

Structure (SMILES): Cc1cccnc1-c1noc([C@H]2CCCN(C(=O)c3ccc(F)cc3)C2)n1 [Example 40, (4-Fluoro-phenyl)-{(S)-3-[3-(3-methyl-pyridin-2-yl)-[1,2,4]oxadiazol-5-yl]-piperidin-1-yl}-methanone]
- EC50: > 10 µM

Structure (SMILES): O=C(c1c[nH]nc1C(F)(F)F)N1CCC[C@H](c2nc(-c3ccc(F)cc3)no2)C1 [Example 41, {(S)-3-[3-(4-Fluoro-phenyl)-[1,2,4]oxadiazol-5-yl]-piperidin-1-yl}-(3-trifluoromethyl-1H-pyrazol-4-yl)-methanone]
- EC50: > 10 µM

Structure (SMILES): CNc1cc(F)ccc1C(=O)N1CCC[C@H](c2nc(-c3ccc(F)cc3)no2)C1 [Example 42, (4-Fluoro-2-methylamino-phenyl)-{(S)-3-[3-(4-fluoro-phenyl)-[1,2,4]oxadiazol-5-yl]-piperidin-1-yl}-methanone]
- EC50: > 10 µM

Structure (SMILES): Cc1oncc1C(=O)N1CCC[C@H](c2nc(-c3ccsc3)no2)C1 [Example 44, (5-Methyl-isoxazol-4-yl)-[(S)-3-(3-thiophen-3-yl-[1,2,4]oxadiazol-5-yl)-piperidin-1-yl]-methanone]
- EC50: < 1 µM

Structure (SMILES): CCc1oncc1C(=O)N1CCC[C@H](c2nc(-c3ccc(F)cc3)no2)C1 [Example 46, (5-Ethyl-isoxazol-4-yl)-{(S)-3-[3-(4-fluoro-phenyl)-[1,2,4]oxadiazol-5-yl]-piperidin-1-yl}-methanone]
- EC50: 1 to 10 µM

Structure (SMILES): COCc1oncc1C(=O)N1CCC[C@H](c2nc(-c3ccc(F)cc3)no2)C1 [Example 47, {(S)-3-[3-(4-Fluoro-phenyl)-[1,2,4]oxadiazol-5-yl]-piperidin-1-yl}-(5-methoxymethyl-isoxazol-4-yl)-methanone]
- EC50: 1 to 10 µM

Structure (SMILES): Cc1ccccc1-c1noc([C@H]2CCCN(C(=O)c3ccc(F)cc3)C2)n1 [Example 48, (4-Fluoro-phenyl)-[(S)-3-(3-o-tolyl-[1,2,4]oxadiazol-5-yl)-piperidin-1-yl]-methanone]
- EC50: > 10 µM

Structure (SMILES): CNc1ccccc1C(=O)N1CCC[C@H](c2nc(-c3ccc(F)cc3)no2)C1 [Example 49, {(S)-3-[3-(4-Fluoro-phenyl)-[1,2,4]oxadiazol-5-yl]-piperidin-1-yl}-(2-methylamino-phenyl)-methanone]
- EC50: 1 to 10 µM

From patent US20090197897A1, “Novel Oxadiazole Derivatives and Their Use as Positive Allosteric Modulators of Metabotropic Glutamate Receptors” (Addex Pharma SA, priority 2005, published 2009)
